Source: PubChem BioAssay (NCI)
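Dose response: 5 concentrations. Exposure: 48 h. Format: 96-well plates. Endpoint: linear interpolation; highest concentration if not reached. TGI is the concentration that stops growth completely.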

Key:
Assay in all cases: growth of human tumour cells (NCI), 48 h
[1] = system: SK-MEL-2 melanoma
[2] = system: MDA-MB-231 breast
[3] = system: SF-295 CNS
[4] = system: HOP-92 NSCLC
[5] = system: SNB-19 CNS
[6] = system: NCI-H460 lung
[7] = system: UACC-62 melanoma
[8] = system: UACC-257 melanoma
[9] = system: CAKI-1 renal
[10] = system: UO-31 renal
[11] = system: CCRF-CEM leukemia
[12] = system: MOLT-4 leukemia
[13] = system: RXF 393 renal
[14] = system: MDA-MB-435
[15] = system: SK-MEL-5 melanoma
[16] = system: A498 renal
[17] = system: BT-549 breast
[18] = system: IGROV1 ovarian
[19] = system: SF-268 CNS
[20] = system: HCT-15 colon
[21] = system: KM12 colon
[22] = system: TK-10 renal
[23] = system: SR leukemia
[24] = system: NCI-H226 lung
[25] = system: OVCAR-3 ovarian
[26] = system: U251 CNS
[27] = system: NCI-H23 lung
[28] = system: NCI/ADR-RES ovarian
[29] = system: 786-0 renal
[30] = system: T-47D breast
[31] = system: OVCAR-5 ovarian
[32] = system: SW-620 colon
[33] = system: NCI-H522 lung
[34] = system: HT29 colon
[35] = system: SNB-75 CNS
[36] = system: SF-539 CNS
[37] = system: OVCAR-8 ovarian
[38] = system: COLO 205 colon
[39] = system: RPMI-8226 leukemia
[40] = system: HOP-62 NSCLC
[41] = system: LOX IMVI melanoma
[42] = system: ACHN renal
[43] = system: HS 578T breast
[44] = system: PC-3 prostate
[45] = system: SK-OV-3 ovarian
[46] = system: MCF7 breast
[47] = system: K-562 leukemia
[48] = system: M14 melanoma
[49] = system: A549 NSCLC
[50] = system: EKVX NSCLC
[51] = system: OVCAR-4 ovarian
[52] = system: HCT-116 colon
[53] = system: MALME-3M melanoma

Measured: TGI

O=C1CCCn2c(nc3ccccc32)N1
> 100 µM: all assays above
